Patent publication EP0369733A2, “Fluorescent indicator dyes for alkali metal cations, their preparation and use” (THE REGENTS OF THE UNIVERSITY OF CALIFORNIA, priority 1988, dated 1990)
Where “and” joins values, the source holds several entries; their conditions need not be identical. Equal entries are not always repeated.

Tests used:
[1] = UV absorbance spectra without and with saturating cation; type: physicochemical; conditions: for Absorbance maxima -Na⁺ (wavelength): 100 mM tetramethylammonium chloride plus 1-5 mM Tris; for Absorbance maxima -Na⁺ (wavelength) / Absorbance maxima -Na⁺ (extinction coefficient): no Na⁺; for Absorbance maxima +Na⁺ (wavelength): enough NaCl added (0.2-1 M) to saturate the Na⁺ binding; for Absorbance maxima -Na⁺ (extinction coefficient) / Absorbance maxima +Na⁺ (extinction coefficient): number is 10⁻³ x the extinction coefficient; for Absorbance maxima -Na⁺ (extinction coefficient): lower limits for most compounds; for Absorbance maxima +Na⁺ (extinction coefficient): lower limits, saturating NaCl (0.2-1 M)
Description: (§1) • Footnote a: For molecular structures, see Fig. 1. • Footnote b: Except where otherwise noted, these dissociation constants were measured with the chelator dissolved in 0.1 M tetramethylammonium chloride, at a pH held high enough with 1-5 mM tris(hydroxymethyl)aminomethane for protonation to be insignificant. The absorbance spectrum, or the fluorescence excitation spectrum for those compounds (2GG, 2NN, 2OO, 2PP, 3NN) with acronyms was measured as a function of the concentration of cation added as a solid or concentrated aqueous solution of the halide salt. No correction has been made for the changing ionic strength of the solution, which started from 0.1 M and increased, but the absorbances and fluorescence amplitudes were applied for dilution of the dye and any slight quenching due to high concentrations of Cl⁻. • Footnote c: These protonation constants were determined in 0.1 M tetramethylammonium chloride, 10 mM tris(hydroxymethyl)aminomethane, titrated with 5 M H₃PO₄ to successively lower pH values measured with a Radiometer PHM84 meter. […] The first number is the wavelength in nanometers, followed in parentheses by 10⁻³ x the corresponding extinction coefficient, M⁻¹cm⁻¹. […] Emission maxima are not corrected for the spectral sensitivity of the emission detection. Quantum efficiencies were measured (13) by comparing the integral of the corrected emission spectrum with the corresponding integral for a solution of quinine bisulfate in 1 N H₂SO₄ of matched absorbance at the excitation wavelength.
(§2) UV absorbance spectra were recorded initially on a Cary 210 and later on a Perkin-Elmer Lambda Array 3840 spectrophotometer. Fluorescence excitation and emission spectra and quantum efficiencies were measured on a Spex Fluorolog 111 as described previously (13).

[2] = Fluorescence excitation/emission spectra and quantum efficiency; type: physicochemical; conditions: for Emission maxima -Na⁺: 100 mM tetramethylammonium chloride; for Emission maxima -Na⁺ / Quantum efficiency -Na⁺: no Na⁺; for Emission maxima -Na⁺ / Emission maxima +Na⁺: not corrected for detector sensitivity; for Quantum efficiency -Na⁺ / Quantum efficiency +Na⁺: relative to quinine bisulfate in 1 N H₂SO₄ (0.55); for Emission maxima +Na⁺: saturating NaCl; for Quantum efficiency +Na⁺: saturating Na⁺; for fluorescence quantum yield: ±Na⁺ not specified
Description: as §1, §2

[3] = Proton dissociation constants in 0.1 M tetramethylammonium chloride; conditions: second value (second protonation), 10 mM Tris titrated with 5 M H₃PO₄
Description: (§4) • Footnote a: For molecular structures, see Fig. 1. • Footnote b: Except where otherwise noted, these dissociation constants were measured with the chelator dissolved in 0.1 M tetramethylammonium chloride, at a pH held high enough with 1-5 mM tris(hydroxymethyl)aminomethane for protonation to be insignificant. […] No correction has been made for the changing ionic strength of the solution, which started from 0.1 M and increased, but the absorbances and fluorescence amplitudes were applied for dilution of the dye and any slight quenching due to high concentrations of Cl⁻. • Footnote c: These protonation constants were determined in 0.1 M tetramethylammonium chloride, 10 mM tris(hydroxymethyl)aminomethane, titrated with 5 M H₃PO₄ to successively lower pH values measured with a Radiometer PHM84 meter.
(§5) Proton dissociation constants of the chelators were measured by spectrophotometry or spectrofluorometry of buffered solutions, containing either 100 mM tetramethylammonium chloride as inert supporting electrolyte, or 121.5 mM K⁺, 13.5 mM Na⁺, and 1 mM Mg²⁺ to simulate the cation environment of vertebrate cytoplasm (14). Traces of UV-absorbing impurities in the tetramethylammonium chloride (Alfa Inorganics) were removed by filtration through acid-­washed activated charcoal. The concentration of the tetramethylammonium chloride was then measured by chloride titration, and the absence of significant Na⁺ contamination was verified with a sodium-selective glass electrode (Microelectrodes Inc.). When the chelators contained two protonatable nitrogens, the curve of absorbance or fluorescence versus pH was analyzed by computerized least-squares fitting to the equations for two arbitrary proton equilibria (15), with the added assumption that the two protonations each caused the same change in extinction coefficient or fluorescence.

[4] = Cation titration followed by absorbance or fluorescence excitation spectra: Na⁺ binding; conditions: for Kd: read-out: Dissociation constants (Kd) in mM for Na⁺
Description: as §1
(§3) Affinities for other cations were usually measured by titrating aqueous solutions of the indicator with metal chlorides added either as solid or from concentrated stock solutions, taking care to minimize dilution and correct for it. A convenient way to mass-produce premeasured micromole to millimole aliquots of solid NaCl or KCl was to pipet saline solutions into polypropylene micro test tubes and evaporate the water in an oven. The standard ionic background was again 100 mM tetramethylammonium chloride, usually with a few mM of tris(hydroxymethyl)-aminomethane base to hold the pH high enough (pH 8-9) to insure that protonation was negligible. This convenient titration procedure had the slight disadvantage that the ionic strength was not constant, especially when large quantities of a salt had to be added due to weak affinities. […] When constant ionic strength was desired, the chelator was made up at identical concentrations in matched solutions of NaCl, KCl, or tetramethylammonium chloride, then these stocks were mixed in the desired proportions. All measurements were made at room temperature (22°, ±2° C).

physchem = conditions: 0.1 m tetramethylammonium chloride
Description: as §4, §5

[5] = Cation titration followed by absorbance or fluorescence excitation spectra: Ca²⁺ binding; conditions: 0.1 M tetramethylammonium chloride, 1-5 mM tris(hydroxymethyl)aminomethane, high pH; read-out: Dissociation constants (Kd) in mM for Ca²⁺
Description: as §1, §3

[6] = Cation titration followed by absorbance or fluorescence excitation spectra: Li⁺ binding; conditions: for Kd: 0.1 M tetramethylammonium chloride, 1-5 mM tris(hydroxymethyl)aminomethane, high pH, read-out: Dissociation constants (Kd) in mM for Li⁺
Description: as §1, §3

[7] = Cation titration followed by absorbance or fluorescence excitation spectra: Mg²⁺ binding; conditions: read-out: Dissociation constants (Kd) in mM for Mg²⁺
Description: as §1
as §3, with “proportions.” for “proportions. All measurements were made at room temperature (22°, ±2° C).”

[8] = 0.1 M tetramethylammonium chloride, 1-5 mM tris(hydroxymethyl)aminomethane, pH high enough for protonation to be insignificant, 22°
[9] = 0.1 M tetramethylammonium chloride, 1-5 mM tris(hydroxymethyl)aminomethane, high pH
[10] = association constant, inert background cation (tetramethylammonium)
[11] = footnote h: 3.0 M ionic strength (3.0 M NaCl mixed with 3.0 M tetramethylammonium chloride)

SMILES	Emission maxima -Na⁺ [2] [nanometers]	Quantum efficiency -Na⁺ [2]	Emission maxima +Na⁺ [2] [nanometers]	Quantum efficiency +Na⁺ [2]	pKa [3]	Kd [4, 8] [mM]	pKa (physchem)	Absorbance maxima -Na⁺ (wavelength) [1]	Absorbance maxima +Na⁺ (wavelength) [1]	Absorbance maxima -Na⁺ (extinction coefficient) [1] [M⁻¹ cm⁻¹]	Absorbance maxima +Na⁺ (extinction coefficient) [1]	Kd [5] [mM]	Kd [6] [mM]	Na⁺ affinity [4, 10] [M⁻¹]	Kd [4, 11] [mM]	other results
Cc1ccc2c(n1)c(N1CCOCCOCCN(c3cc4oc(-c5ccc(C(=O)O)c(C(=O)O)c5)cc4c4ccc(C)nc34)CCOCC1)cc1oc(-c3ccc(C(=O)O)c(C(=O)O)c3)cc12 [Compound 2GG, N,N-bis(2-(3,4-dicarboxyphenyl)-7-methylfuro [3,2-f]quinolin-5-yl)-diaza[15]-crown-5]	486	.005	525	.01	6.8	4.7	7.9									Absorbance maxima -Na⁺ (wavelength) ([1]; listed as 2GG (SQFP)): 373 nanometers and 308 nanometers; Absorbance maxima +Na⁺ (wavelength) ([1]; listed as 2GG (SQFP)): 362 nanometers and 307 nanometers; Absorbance maxima -Na⁺ (extinction coefficient) ([1]; listed as 2GG (SQFP)): 24000 M⁻¹ cm⁻¹ and 22000 M⁻¹ cm⁻¹; Absorbance maxima +Na⁺ (extinction coefficient) ([1]; listed as 2GG (SQFP)): 31000 M⁻¹ cm⁻¹ and 28000 M⁻¹ cm⁻¹
COc1cc(NC(C)=O)ccc1N1CCOCCOCCN(c2ccc(NC(C)=O)cc2OC)CCOCC1 [Compound 2JJ, N,N-bis-(4-acetamido-2-methoxyphenyl)-diaza[15]-crown-5]					5.0	12	6.31	261 nanometers	280 nanometers and 249 nanometers	10800	5400 M⁻¹ cm⁻¹ and 10700 M⁻¹ cm⁻¹	> 100	72			Na⁺ affinity ([4]; at I = 0.15): 83 M⁻¹; Kd [7, 9]: > 100 mM
COc1ccc(OC)c(N2CCOCCOCCN(c3cc(OC)ccc3OC)CCOCC2)c1 [Compound 2LL, N,N-bis-(2,5-dimethoxyphenyl)-diaza[15]-crown-5]						10 to 20		295 nanometers and 213 nanometers	291 nanometers		4000 M⁻¹ cm⁻¹					
O=C(O)CCC(=O)Nc1ccc(N2CCOCCOCCN(c3ccc(NC(=O)CCC(=O)O)c4cc5ccccc5nc34)CCOCC2)c2nc3ccccc3cc12 [Compound 2II, N,N-bis-(1-succinamidoacridin-4-yl)-diaza[15]-crown-5]	480	<.001	625	<.001	6.86	0.32	8.19	414 nanometers and 359 nanometers and 244 nanometers	360 nanometers and 251 nanometers				11.5	3125	0.4	fluorescence quantum yield [2]: very poor; Na⁺:K⁺ selectivity ([4]; ratio of Na⁺ to K⁺ affinity): > 500
CC(=O)Nc1ccc(N2CCOCCOCCN(c3ccc(NC(C)=O)c4ccc(C)nc34)CCOCC2)c2nc(C)ccc12 [Compound 2DD, N,N-bis-(5-acetamido-2-methyl-8-quinolinyl)-diaza[15]-crown-5]	525	.01	510	.01	5.62	9.4	7.55								4.4	Absorbance maxima -Na⁺ (wavelength) ([1]; listed as 2DO): 344 nanometers and 256 nanometers; Absorbance maxima +Na⁺ (wavelength) ([1]; listed as 2DO): 306 nanometers and 237 nanometers; fluorescence quantum yield [2]: 0.01; Na⁺ affinity relative to 2CC ([4]; fraction of the affinity of 2CC retained): more than half
Cc1ccc2cc(O)cc(N3CCOCCOCCN(c4cc(O)cc5ccc(C)nc45)CCOCC3)c2n1 [Compound 2FF, N,N-bis-(6-hydroxy-2-methyl-8-quinolinyl)-diaza[15]-crown-5]	497		466			8.9		363 nanometers	362 nanometers	2400	2300 M⁻¹ cm⁻¹					
CC(=O)Nc1ccc(N2CCOCCOCCOCCOCC2)c2ncccc12 [Compound 1C, N-(5-acetamido-8-quinolinyl)-aza[15]-crown-5]						67	< 7	349 nanometers and 252 nanometers	304 nanometers and 229 nanometers			10	63	15		Kd [7, 9]: 12 mM
CC(=O)Nc1ccc(N2CCOCCOCCN(c3ccc(NC(C)=O)c4cccnc34)CCOCC2)c2ncccc12 [Compound 2CC, N,N-bis-(5-acetamido-8-quinolinyl)-diaza[15]-crown-5]					5.43	5.3	6.85	346 nanometers and 250 nanometers	304 nanometers and 230 nanometers			0.075	2.8		2.4	affinity for Li⁺ (in words) ([6]; compared with its Na⁺ affinity): comparable to that for Na⁺; Na⁺ affinity ([4]; depending on ionic strength): 190 to 415 M⁻¹; Kd ([7]; footnote i: free [Mg²⁺] controlled by Mg²⁺-nitrilotriacetate buffers at pH 8.5): 0.078 mM
Nc1ccc(N2CCOCCOCCOCCOCC2)c(C(=O)O)c1 [Compound 1B, N-(4-amino-2-carboxyphenyl)-aza[15]-crown-5]						71	9.21	295 nanometers	296 nanometers	1100	1100 M⁻¹ cm⁻¹			14		
